Assay results published in patent US20020035998A1, “Method for treatment of cancer and infectious disease” (priority 1995, published 2002).

Tests used:
Daudi target cells = experiment: NK cell cytotoxicity (NKCC), 6-hour 51Cr-release assay against Daudi target cells; assay type: cell-based, human; conditions: for NKCC (Cell Lysis %) ± SEM after treatment with IFN / NKCC (Cell Lysis %) ± SEM after treatment with Ran + IFN / NKCC (Cell Lysis %) ± SEM after treatment with Ran: Percoll fraction 8; for NKCC (Cell Lysis %) ± SEM after treatment with Ran + IFN: agonist 10^−4 M plus ranitidine 10^−4 M plus IFN-α 25 U/ml; for NKCC (Cell Lysis %) ± SEM after treatment with Ran: agonist 10^−4 M plus ranitidine 10^−4 M; for NKCC after treatment with Medium: no IFN; for potency and effect in intensifying baseline NKCC and restoring the NK cell's response to IFN-α: compared with serotonin, Table 4; for influence on the effect of serotonin on NKCC: ketanserin and ondansetron in equimolar concentrations
Source text: (§1) MNC were obtained from peripheral venous blood from healthy human blood donors by Ficoll-Hypaque centrifuging, followed by Percoll density-gradient fractionation (Timonen and Saksela, 1980, J. Immunol. Methods 36, 285-291; Hellstrand and Hermodsson, 1990, Scand. J. Immunol. 31, 631-645).
(§2) The target cells used in these experiments were K562, an NK-cell sensitive erythroleukemic cell line, or Daudi, a relatively NK-insensitive EBV-transformed B-cell lymphoblastoid cell line.
(§3) The NKCC was determined six times as the specific ^51Cr-release for a NMNC: target-cell ratio of between 30:1 and 3.8:1 in two-fold dilution gradients. The suspensions of MNC/target cells were incubated in microplates at 37° C. for 6 hours (Daudi) or 16 hours (K562). The supernatant solution was then collected and examined for radioactivity in a gamma counter. The maximum ^51Cr-release was measured in target cell cultures treated with Triton X-100. The NKCC was calculated as the cell lysis % by the formula 100×(experimental release−spontaneous release/maximum release−spontaneous release)=cell lysis %.
(§4) In the results shown in Table 2, MNC from five different donors were used. All compounds were added to mixtures of MNC and target cells at the start of a 6 h (Daudi) or 16 h (K562) effecter and target cell incubation. The effecter cells were obtained from Percoll fractions 7-8, containing 33-55% monocytes.
In the experiment shown in Table 3, culture medium (control), histamine (10^−4 M), dimaprit (10^−4 M), ranitidine (ran) (10^−4 M) and/or IFN-α (25 U/ml) were added at the start of a 6-hour ^51Cr release assay using Daudi target cells. The data are representative of three similar experiments. NKCC is given as mean cell lysis %±SEM of six determinations. The effecter cells were recovered from a low-density Percoll fraction 8, containing around 40% monocytes.
In the experiment shown in Table 4, culture medium (control), serotonin, 8-OH-DPAT (+)-ALK and/or IFN-α (25 U/ml) were added at the start of a 6-hour ^51Cr-release assay against Daudi target cells. The NKCC is given as cell lysis %±SEM of six determinations. The effector cells were recovered from the low-density Percoll fraction 7, containing around 36% monocytes.

K562 target cells = experiment: NK cell cytotoxicity (NKCC), 16-hour 51Cr-release assay against K562 target cells; assay type: cell-based, human; conditions: for cytotoxicity against K562 in the NK cell-concentrated lymphocyte fraction: eluted lymphocytes without monocytes, 16-hour assay; for basal cytotoxicity of lymphocytes in mixtures of monocytes and lymphocytes / monocyte induced inhibition of the NK cell response to IFN-α: mixtures of eluted monocytes and NK cell-enriched lymphocytes; for NK cell cytotoxicity (NKCC) after treatment: serotonin 10^−4 M and/or IFN-α 25 U/ml, 16 h, 10^4 K562, mean ± SEM of six
Source text: as §1, §2, §3
A low-density Percoll fraction was separated by counterflow centrifuge elusion (CCE) in a monocyte and in a lymphocyte fraction. The monocyte fraction was concentrated to >90% purity whereupon the contaminating cells consisted of large lymphocytes. The lymphocyte fractions obtained by CCE contained <3% monocytes, determined by morphology and Leu-M3 (CD14) antigen expression. The lymphocytes were […], […] , CD3^+/16^−/56^− T cells (45-50%), CD3^+/16^+/56^+ cells (1-5%), determined by flow cytometry.
J The eluted monocytes and/or the NK cell-concentrated low-density lymphocytes were treated with IFN-α and histamine/serotonin. The compounds were added, separately or in combination, to mixtures of MNC and K562 target cells at the start of a 16-hour ^51Cr-release assay. The cytotoxicity against K562 in the NK cell-concentrated lymphocyte fraction was increased by IFN-α and unaffected by histamine or serotonin. […] The addition of eluted monocytes to the NK cell concentrated lymphocytes suppressed the baseline cytotoxicity to K562.
In the experiments reported in Table 1, eluted lymphocytes were mixed with monocytes as shown in the table, in a total volume of 150 μl. The data are NKCC (mean ±SEM) of six determinations. Serotonin 10^−4 M and/or IFN-α (25 U/ml) was added at the start of a 16-hour microcytotoxicity test against 10^4 K562 target cells.
as §4
Cells from the monocyte-containing Percoll fraction 8 were incubated with culture medium, histamine (10^−4 M) or serotonin (10^−4 M) in the presence of IFN-α (0-100 U/ml). The data shown are NKCC (cell lysis %; mean±SEM of six determinations). The compounds were added at the start of a 16 h microcytotoxicity test against K 562 target cells.

[1] = agonist 10^−4 M plus IFN-α 25 U/ml, Daudi 6 h
[2] = named agent(s) only, no further additive: histamine, dimaprit, ranitidine 10^−4 M, IFN-α 25 U/ml, Daudi 6 h, Percoll fraction 8, around 40% monocytes
[3] = agonist 10^−4 M plus IFN-α 25 U/ml, Daudi 6 h, Percoll fraction 7
[4] = agonist 10^−4 M, Daudi 6 h, Percoll fraction 7, around 36% monocytes

## CN(C)CCCSC(=N)N [Dimaprit, dimaprit, reference compound]
Daudi target cells; [1]
  NKCC (Cell Lysis %) ± SEM after treatment with IFN: 32.6 ± 1%
Daudi target cells; Daudi 6 h
  NKCC (Cell Lysis %) ± SEM after treatment with Ran + IFN: 0.5 ± 0.5%
  NKCC (Cell Lysis %) ± SEM after treatment with Ran: 0.4 ± 0.4%
Daudi target cells; [2]
  NKCC (cell lysis % ± SEM): 6.4 ± 1%
Daudi target cells; simultaneous treatment, Table 3
  effect of histamine on monocyte-induced suppression of resting and IFN-α-activated NK cells: influence of the agent: imitated

## NCCc1c[nH]c2ccc(O)cc12 [Serotonin, serotonin]
Daudi target cells; [3]
  NKCC after treatment with IFN: 44.3 ± 1%
Daudi target cells; [4]
  NKCC after treatment with Medium: 10.4 ± 1%
Daudi target cells; agonist 10^−5 M plus IFN-α 25 U/ml, Daudi 6 h, Percoll fraction 7
  NKCC after treatment with IFN: 33.2 ± 1%
Daudi target cells; agonist 10^−5 M, Daudi 6 h, Percoll fraction 7
  NKCC after treatment with Medium: 4.5 ± 0.3%
Daudi target cells; agonist 10^−6 M plus IFN-α 25 U/ml, Daudi 6 h, Percoll fraction 7
  NKCC after treatment with IFN: 12.3 ± 1%
Daudi target cells; agonist 10^−6 M, Daudi 6 h, Percoll fraction 7
  NKCC after treatment with Medium: 2.2 ± 0.4%
K562 target cells
  cytotoxicity against K562 in the NK cell-concentrated lymphocyte fraction: unaffected
  basal cytotoxicity of lymphocytes in mixtures of monocytes and lymphocytes: restored
  monocyte induced inhibition of the NK cell response to IFN-α: eliminated
K562 target cells; monocytes 0, lymphocytes 12 (×10^−4)
  NK cell cytotoxicity (NKCC) after treatment: 34 ± 3%
K562 target cells; monocytes 6, lymphocytes 12 (×10^−4)
  NK cell cytotoxicity (NKCC) after treatment: 31 ± 2%
K562 target cells; monocytes 12, lymphocytes 12 (×10^−4)
  NK cell cytotoxicity (NKCC) after treatment: 31 ± 2%

## CCCN(CCC)C1CCc2cccc(O)c2C1 (stereo not drawn) [8-OH-DPAT, 8-hydroxy-2-(di-n-propylamino)tetralin, reference compound]
Daudi target cells; [3]
  NKCC after treatment with IFN: 43.3 ± 1%
Daudi target cells; [4]
  NKCC after treatment with Medium: 8.8 ± 1%
Daudi target cells
  potency and effect in intensifying baseline NKCC and restoring the NK cell's response to IFN-α: comparable to that of serotonin

## CCCN(CCC)[C@H]1CCc2cccc(O)c2[C@H]1C (relative stereo) [(+)-ALK-3, cis-8-hydroxy-1-methyl-2-(di-n-propylamino)tetralin, reference compound]
Daudi target cells; [3]
  NKCC after treatment with IFN: 40.4 ± 1%
Daudi target cells; [4]
  NKCC after treatment with Medium: 9.1 ± 1%
Daudi target cells
  potency and effect in intensifying baseline NKCC and restoring the NK cell's response to IFN-α: comparable to that of serotonin

## NCCc1c[nH]cn1 [Histamine, histamine]
Daudi target cells; Exp 4, Daudi, 30:1, histamine 10^−4 M plus IFN 25 U/ml
  NKCC (cell lysis % ± SEM): 31.7 ± 1%
Daudi target cells; Exp 4, Daudi, 30:1, histamine 10^−5 M plus IFN 25 U/ml
  NKCC (cell lysis % ± SEM): 28.3 ± 1%
Daudi target cells; Exp 4, Daudi, 30:1, histamine 10^−5 M, medium (no IFN)
  NKCC (cell lysis % ± SEM): 3.5 ± 2%
Daudi target cells; Exp 4, Daudi, 30:1, histamine 10^−6 M plus IFN 25 U/ml
  NKCC (cell lysis % ± SEM): 14.1 ± 1%
Daudi target cells; Exp 4, Daudi, 30:1, histamine 10^−6 M, medium (no IFN)
  NKCC (cell lysis % ± SEM): 1.1 ± 0.3%
Daudi target cells; Exp 4, Daudi, MNC/target 30:1, histamine 10^−4 M, medium (no IFN)
  NKCC (cell lysis % ± SEM): 4.4 ± 1%
Daudi target cells; Exp 5, Daudi, 30:1, histamine 10^−4 M plus IFN 25 U/ml
  NKCC (cell lysis % ± SEM): 61.3 ± 3%
Daudi target cells; Exp 5, Daudi, 30:1, histamine 10^−4 M, medium (no IFN)
  NKCC (cell lysis % ± SEM): 13.5 ± 1%
Daudi target cells; Exp 5, Daudi, 30:1, histamine 10^−5 M plus IFN 25 U/ml
  NKCC (cell lysis % ± SEM): 52.3 ± 2%
Daudi target cells; Exp 5, Daudi, 30:1, histamine 10^−5 M, medium (no IFN)
  NKCC (cell lysis % ± SEM): 9.7 ± 1%
Daudi target cells; Exp 5, Daudi, 30:1, histamine 10^−6 M plus IFN 25 U/ml
  NKCC (cell lysis % ± SEM): 31.7 ± 1%
Daudi target cells; Exp 5, Daudi, 30:1, histamine 10^−6 M, medium (no IFN)
  NKCC (cell lysis % ± SEM): 2.5 ± 1%
Daudi target cells; [1]
  NKCC (Cell Lysis %) ± SEM after treatment with IFN: 31.7 ± 0.3%
Daudi target cells; Daudi 6 h
  NKCC (Cell Lysis %) ± SEM after treatment with Ran + IFN: 1.6 ± 0.2%
  NKCC (Cell Lysis %) ± SEM after treatment with Ran: 1.5 ± 0.3%
Daudi target cells; [2]
  NKCC (cell lysis % ± SEM): 9.4 ± 0.3%
K562 target cells; Exp 1, K562, 15:1, histamine 10^−4 M plus IFN 25 U/ml
  NKCC (cell lysis % ± SEM): 76.4 ± 3%
K562 target cells; Exp 1, K562, 15:1, histamine 10^−5 M plus IFN 25 U/ml
  NKCC (cell lysis % ± SEM): 74.1 ± 1%
K562 target cells; Exp 1, K562, 15:1, histamine 10^−5 M, medium (no IFN)
  NKCC (cell lysis % ± SEM): 54.7 ± 1%
K562 target cells; Exp 1, K562, 15:1, histamine 10^−6 M plus IFN 25 U/ml
  NKCC (cell lysis % ± SEM): 66.0 ± 2%
K562 target cells; Exp 1, K562, 15:1, histamine 10^−6 M, medium (no IFN)
  NKCC (cell lysis % ± SEM): 39.2 ± 1%
K562 target cells; Exp 1, K562, MNC/target 15:1, histamine 10^−4 M, medium (no IFN), monocyte-containing Percoll fractions 7-8
  NKCC (cell lysis % ± SEM): 55.5 ± 1%
K562 target cells; Exp 2, K562, 15:1, histamine 10^−4 M plus IFN 25 U/ml
  NKCC (cell lysis % ± SEM): 67.9 ± 2%
K562 target cells; Exp 2, K562, 15:1, histamine 10^−4 M, medium (no IFN)
  NKCC (cell lysis % ± SEM): 32.4 ± 1%
K562 target cells; Exp 2, K562, 15:1, histamine 10^−5 M plus IFN 25 U/ml
  NKCC (cell lysis % ± SEM): 66.2 ± 1%
K562 target cells; Exp 2, K562, 15:1, histamine 10^−5 M, medium (no IFN)
  NKCC (cell lysis % ± SEM): 27.4 ± 1%
K562 target cells; Exp 2, K562, 15:1, histamine 10^−6 M plus IFN 25 U/ml
  NKCC (cell lysis % ± SEM): 55.4 ± 1%
K562 target cells; Exp 2, K562, 15:1, histamine 10^−6 M, medium (no IFN)
  NKCC (cell lysis % ± SEM): 23.2 ± 2%
K562 target cells; Exp 3, K562, 15:1, histamine 10^−4 M plus IFN 25 U/ml
  NKCC (cell lysis % ± SEM): 71.9 ± 1%
K562 target cells; Exp 3, K562, 15:1, histamine 10^−4 M, medium (no IFN)
  NKCC (cell lysis % ± SEM): 43.3 ± 1%
K562 target cells; Exp 3, K562, 15:1, histamine 10^−5 M plus IFN 25 U/ml
  NKCC (cell lysis % ± SEM): 66.5 ± 2%
K562 target cells; Exp 3, K562, 15:1, histamine 10^−5 M, medium (no IFN)
  NKCC (cell lysis % ± SEM): 38.6 ± 1%
K562 target cells; Exp 3, K562, 15:1, histamine 10^−6 M plus IFN 25 U/ml
  NKCC (cell lysis % ± SEM): 56.3 ± 2%
K562 target cells; Exp 3, K562, 15:1, histamine 10^−6 M, medium (no IFN)
  NKCC (cell lysis % ± SEM): 29.4 ± 1%
K562 target cells
  cytotoxicity against K562 in the NK cell-concentrated lymphocyte fraction: unaffected
  basal cytotoxicity of lymphocytes in mixtures of monocytes and lymphocytes: restored
  monocyte induced inhibition of the NK cell response to IFN-α: eliminated

## O=C(c1ccc(F)cc1)C1CCN(CCn2c(=O)[nH]c3ccccc3c2=O)CC1 [Ketanserin, reference compound]
Daudi target cells; ranitidine 10^−4 M
  influence on the effect of serotonin on NKCC: did not influence the effect of serotonin

## Cc1nccn1CC1CCc2c(c3ccccc3n2C)C1=O (stereo not drawn) [ondansetron, reference compound]
Daudi target cells; ranitidine 10^−4 M
  influence on the effect of serotonin on NKCC: did not influence the effect of serotonin

## CNC(=C[N+](=O)[O-])NCCSCc1ccc(CN(C)C)o1 [Ran, ranitidine, reference compound]
Daudi target cells; [2]
  NKCC (cell lysis % ± SEM): 0.0 ± 0.1%
